# Measurements: PubChem BioAssay (NCI)
#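 Following 48 hours of exposure in 96-well plates, responses at five concentrations were used to interpolate endpoints linearly. At the TGI there is no net growth.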
# Experiments:
# Experiment in all cases: inhibition of tumour cell growth, NCI panel, 48 h
# OVCAR-5 ovarian = system: OVCAR-5 ovarian
# HCC-2998 colon = system: HCC-2998 colon
# MOLT-4 leukemia = system: MOLT-4 leukemia
# SK-OV-3 ovarian = system: SK-OV-3 ovarian
# IGROV1 ovarian = system: IGROV1 ovarian
# SF-539 CNS = system: SF-539 CNS
# SK-MEL-5 melanoma = system: SK-MEL-5 melanoma
# NCI-H226 lung = system: NCI-H226 lung
# A549 NSCLC = system: A549 NSCLC
# NCI-H522 lung = system: NCI-H522 lung
# HCT-116 colon = system: HCT-116 colon
# LOX IMVI melanoma = system: LOX IMVI melanoma
# CAKI-1 renal = system: CAKI-1 renal
# OVCAR-8 ovarian = system: OVCAR-8 ovarian
# SN12C renal = system: SN12C renal
# CCRF-CEM leukemia = system: CCRF-CEM leukemia
# SK-MEL-2 melanoma = system: SK-MEL-2 melanoma
# LXFL 529 NSCLC = system: LXFL 529 NSCLC
# UACC-62 melanoma = system: UACC-62 melanoma
# KM12 colon = system: KM12 colon
# KM20L2 colon = system: KM20L2 colon
# HCT-15 colon = system: HCT-15 colon
# HOP-92 NSCLC = system: HOP-92 NSCLC
# RPMI-8226 leukemia = system: RPMI-8226 leukemia
# DMS 273 small cell lung = system: DMS 273 small cell lung
# M19-MEL melanoma = system: M19-MEL melanoma
# DMS 114 small cell lung = system: DMS 114 small cell lung
# DLD-1 colon = system: DLD-1 colon
# SK-MEL-28 melanoma = system: SK-MEL-28 melanoma
# SF-268 CNS = system: SF-268 CNS
# SR leukemia = system: SR leukemia
# OVCAR-4 ovarian = system: OVCAR-4 ovarian
# EKVX NSCLC = system: EKVX NSCLC
# TK-10 renal = system: TK-10 renal
# SF-295 CNS = system: SF-295 CNS
# K-562 leukemia = system: K-562 leukemia
# XF 498 CNS = system: XF 498 CNS
# COLO 205 colon = system: COLO 205 colon
# HOP-62 NSCLC = system: HOP-62 NSCLC
# ACHN renal = system: ACHN renal
# MALME-3M melanoma = system: MALME-3M melanoma
# SNB-19 CNS = system: SNB-19 CNS
# RXF 393 renal = system: RXF 393 renal
# SW-620 colon = system: SW-620 colon
# UO-31 renal = system: UO-31 renal
# OVCAR-3 ovarian = system: OVCAR-3 ovarian
# RXF-631 renal = system: RXF-631 renal
# NCI-H23 lung = system: NCI-H23 lung
# M14 melanoma = system: M14 melanoma
# HT29 colon = system: HT29 colon
# 786-0 renal = system: 786-0 renal
# HL-60(TB) leukemia = system: HL-60(TB) leukemia
# SNB-78 CNS = system: SNB-78 CNS
# A498 renal = system: A498 renal
# U251 CNS = system: U251 CNS
# UACC-257 melanoma = system: UACC-257 melanoma
# NCI-H460 lung = system: NCI-H460 lung
# SNB-75 CNS = system: SNB-75 CNS
# HOP-18 NSCLC = system: HOP-18 NSCLC
structure (smiles),measurement,setting,value
COc1cc(CNc2nc3c(NC(C)=O)cc(C(F)(F)F)cc3nc2-c2ccccc2)cc(OC)c1OC,TGI,OVCAR-5 ovarian,> 100 µM
same,TGI,HCC-2998 colon,> 100 µM
same,TGI,MOLT-4 leukemia,> 100 µM
same,TGI,SK-OV-3 ovarian,> 100 µM
same,TGI,IGROV1 ovarian,> 100 µM
same,TGI,SF-539 CNS,> 100 µM
same,TGI,SK-MEL-5 melanoma,> 100 µM
same,TGI,NCI-H226 lung,> 100 µM
same,TGI,A549 NSCLC,> 100 µM
same,TGI,NCI-H522 lung,> 100 µM
same,TGI,HCT-116 colon,> 100 µM
same,TGI,LOX IMVI melanoma,> 100 µM
same,TGI,CAKI-1 renal,> 100 µM
same,TGI,OVCAR-8 ovarian,> 100 µM
same,TGI,SN12C renal,> 100 µM
same,TGI,CCRF-CEM leukemia,> 100 µM
same,TGI,SK-MEL-2 melanoma,> 100 µM
same,TGI,LXFL 529 NSCLC,> 100 µM
same,TGI,UACC-62 melanoma,> 100 µM
same,TGI,KM12 colon,> 100 µM
same,TGI,KM20L2 colon,> 100 µM
same,TGI,HCT-15 colon,> 100 µM
same,TGI,HOP-92 NSCLC,> 100 µM
same,TGI,RPMI-8226 leukemia,> 100 µM
same,TGI,DMS 273 small cell lung,> 100 µM
same,TGI,M19-MEL melanoma,> 100 µM
same,TGI,DMS 114 small cell lung,> 100 µM
same,TGI,DLD-1 colon,> 100 µM
same,TGI,SK-MEL-28 melanoma,> 100 µM
same,TGI,SF-268 CNS,> 100 µM
same,TGI,SR leukemia,> 100 µM
same,TGI,OVCAR-4 ovarian,> 100 µM
same,TGI,EKVX NSCLC,> 100 µM
same,TGI,TK-10 renal,> 100 µM
same,TGI,SF-295 CNS,> 100 µM
same,TGI,K-562 leukemia,> 100 µM
same,TGI,XF 498 CNS,> 100 µM
same,TGI,COLO 205 colon,> 100 µM
same,TGI,HOP-62 NSCLC,> 100 µM
same,TGI,ACHN renal,> 100 µM
same,TGI,MALME-3M melanoma,> 100 µM
same,TGI,SNB-19 CNS,> 100 µM
same,TGI,RXF 393 renal,> 100 µM
same,TGI,SW-620 colon,> 100 µM
same,TGI,UO-31 renal,> 100 µM
same,TGI,OVCAR-3 ovarian,> 100 µM
COc1ccc(C2NC(c3ccc(OC)cc3)C(C)C(=O)C2C)cc1 (configuration not stated),TGI,OVCAR-5 ovarian,97.2 µM
same,TGI,HCC-2998 colon,> 100 µM
same,TGI,MOLT-4 leukemia,> 100 µM
same,TGI,SK-OV-3 ovarian,> 100 µM
same,TGI,IGROV1 ovarian,> 100 µM
same,TGI,SF-539 CNS,> 100 µM
same,TGI,RXF-631 renal,> 100 µM
same,TGI,NCI-H23 lung,> 100 µM
same,TGI,M14 melanoma,> 100 µM
same,TGI,NCI-H522 lung,> 100 µM
same,TGI,HCT-116 colon,> 100 µM
same,TGI,LOX IMVI melanoma,> 100 µM
same,TGI,OVCAR-8 ovarian,> 100 µM
same,TGI,SN12C renal,> 100 µM
same,TGI,CCRF-CEM leukemia,> 100 µM
same,TGI,SK-MEL-2 melanoma,> 100 µM
same,TGI,HT29 colon,> 100 µM
same,TGI,LXFL 529 NSCLC,> 100 µM
same,TGI,UACC-62 melanoma,> 100 µM
same,TGI,786-0 renal,> 100 µM
same,TGI,KM12 colon,> 100 µM
same,TGI,KM20L2 colon,> 100 µM
same,TGI,HCT-15 colon,> 100 µM
same,TGI,HOP-92 NSCLC,> 100 µM
same,TGI,RPMI-8226 leukemia,> 100 µM
same,TGI,DMS 273 small cell lung,> 100 µM
same,TGI,HL-60(TB) leukemia,> 100 µM
same,TGI,SNB-78 CNS,> 100 µM
same,TGI,M19-MEL melanoma,> 100 µM
same,TGI,DMS 114 small cell lung,> 100 µM
same,TGI,DLD-1 colon,> 100 µM
same,TGI,SK-MEL-28 melanoma,> 100 µM
same,TGI,SF-268 CNS,> 100 µM
same,TGI,A498 renal,> 100 µM
same,TGI,OVCAR-4 ovarian,> 100 µM
same,TGI,EKVX NSCLC,> 100 µM
same,TGI,TK-10 renal,> 100 µM
same,TGI,SF-295 CNS,> 100 µM
same,TGI,U251 CNS,> 100 µM
same,TGI,UACC-257 melanoma,> 100 µM
same,TGI,K-562 leukemia,> 100 µM
same,TGI,NCI-H460 lung,> 100 µM
same,TGI,COLO 205 colon,> 100 µM
same,TGI,HOP-62 NSCLC,> 100 µM
same,TGI,ACHN renal,> 100 µM
same,TGI,MALME-3M melanoma,> 100 µM
same,TGI,SNB-19 CNS,> 100 µM
same,TGI,RXF 393 renal,> 100 µM
same,TGI,SNB-75 CNS,> 100 µM
same,TGI,HOP-18 NSCLC,> 100 µM
same,TGI,UO-31 renal,> 100 µM
same,TGI,OVCAR-3 ovarian,> 100 µM
CNC1CC(n2cc(C)c(=O)[nH]c2=O)OC1CO (configuration not stated),TGI,HCC-2998 colon,> 100 µM
same,TGI,MOLT-4 leukemia,> 100 µM
same,TGI,SK-OV-3 ovarian,> 100 µM
same,TGI,IGROV1 ovarian,> 100 µM
same,TGI,SF-539 CNS,> 100 µM
same,TGI,RXF-631 renal,> 100 µM
same,TGI,NCI-H226 lung,> 100 µM
same,TGI,NCI-H23 lung,> 100 µM
same,TGI,M14 melanoma,> 100 µM
same,TGI,NCI-H522 lung,> 100 µM
same,TGI,HCT-116 colon,> 100 µM
same,TGI,CAKI-1 renal,> 100 µM
same,TGI,SN12C renal,> 100 µM
same,TGI,CCRF-CEM leukemia,> 100 µM
same,TGI,SK-MEL-2 melanoma,> 100 µM
same,TGI,LXFL 529 NSCLC,> 100 µM
same,TGI,UACC-62 melanoma,> 100 µM
same,TGI,786-0 renal,> 100 µM
same,TGI,HOP-92 NSCLC,> 100 µM
same,TGI,RPMI-8226 leukemia,> 100 µM
same,TGI,DMS 273 small cell lung,> 100 µM
same,TGI,HL-60(TB) leukemia,> 100 µM
same,TGI,M19-MEL melanoma,> 100 µM
same,TGI,DMS 114 small cell lung,> 100 µM
same,TGI,DLD-1 colon,> 100 µM
same,TGI,SK-MEL-28 melanoma,> 100 µM
same,TGI,SF-268 CNS,> 100 µM
same,TGI,SR leukemia,> 100 µM
same,TGI,A498 renal,> 100 µM
same,TGI,OVCAR-4 ovarian,> 100 µM
same,TGI,K-562 leukemia,> 100 µM
same,TGI,XF 498 CNS,> 100 µM
same,TGI,COLO 205 colon,> 100 µM
same,TGI,HOP-62 NSCLC,> 100 µM
same,TGI,ACHN renal,> 100 µM
same,TGI,MALME-3M melanoma,> 100 µM
same,TGI,SNB-75 CNS,> 100 µM
same,TGI,UO-31 renal,> 100 µM
COc1ccc(/C(C#N)=C2/O/C(=N/N)C(c3ccc(OC)c(OC)c3)C2=O)cc1OC (configuration not stated),TGI,MOLT-4 leukemia,> 100 µM
same,TGI,SK-OV-3 ovarian,> 100 µM
same,TGI,IGROV1 ovarian,> 100 µM
same,TGI,SF-539 CNS,> 100 µM
same,TGI,SK-MEL-5 melanoma,> 100 µM
same,TGI,NCI-H226 lung,> 100 µM
same,TGI,NCI-H23 lung,> 100 µM
same,TGI,M14 melanoma,> 100 µM
same,TGI,A549 NSCLC,> 100 µM
same,TGI,NCI-H522 lung,> 100 µM
same,TGI,HCT-116 colon,> 100 µM
same,TGI,LOX IMVI melanoma,> 100 µM
same,TGI,CAKI-1 renal,> 100 µM
same,TGI,SN12C renal,> 100 µM
same,TGI,CCRF-CEM leukemia,> 100 µM
same,TGI,SK-MEL-2 melanoma,> 100 µM
same,TGI,HT29 colon,> 100 µM
same,TGI,LXFL 529 NSCLC,> 100 µM
same,TGI,UACC-62 melanoma,> 100 µM
same,TGI,786-0 renal,> 100 µM
same,TGI,KM12 colon,> 100 µM
same,TGI,KM20L2 colon,> 100 µM
same,TGI,HCT-15 colon,> 100 µM
same,TGI,HOP-92 NSCLC,> 100 µM
same,TGI,RPMI-8226 leukemia,> 100 µM
same,TGI,DMS 273 small cell lung,> 100 µM
same,TGI,HL-60(TB) leukemia,> 100 µM
same,TGI,SNB-78 CNS,> 100 µM
same,TGI,M19-MEL melanoma,> 100 µM
same,TGI,DLD-1 colon,> 100 µM
same,TGI,SK-MEL-28 melanoma,> 100 µM
same,TGI,SF-268 CNS,> 100 µM
same,TGI,SR leukemia,> 100 µM
same,TGI,EKVX NSCLC,> 100 µM
same,TGI,TK-10 renal,> 100 µM
same,TGI,SF-295 CNS,> 100 µM
same,TGI,U251 CNS,> 100 µM
same,TGI,UACC-257 melanoma,> 100 µM
same,TGI,K-562 leukemia,> 100 µM
same,TGI,XF 498 CNS,> 100 µM
same,TGI,ACHN renal,> 100 µM
same,TGI,MALME-3M melanoma,> 100 µM
same,TGI,SNB-75 CNS,> 100 µM
same,TGI,SW-620 colon,> 100 µM
same,TGI,UO-31 renal,> 100 µM
same,TGI,OVCAR-3 ovarian,> 100 µM
